Data on 4 molecules can be found in patent publication US11826467B2, “W/O/W microemulsions for ocular administration” (University of Tennessee Research Foundation, priority 2017, dated 2023).

Structures are written as SMILES.

Series [1] relates to IOP. Description: Efficacy of other gabapentinoid drugs (IOP, viscous eye drops). Type of series: in vivo. Conditions: 0.9% drug in 2% HPMC viscous eye drops, C57Bl/6 J mice. From the text: To determine if other members of the gabapentinoid drug family are also efficacious in reducing IOP, we compared the efficacy of 0.9% pregabalin, 0.9% 2-phenylglycine and 0.9% gabapentin in 2% HPMC viscous eye drops in C57Bl/6 J mice.
2-phenylglycine (FIG. 28) and gabapentin (FIG. 29) were not as efficacious as pregabalin although they both had maximum IOP reductions of −8% and areas under the curve of −14% hr.

In series [2] the test system is IOP. Description: IOP lowering by pregabalin HPMC eye drops in mice (dose response). Type of series: in vivo, B6 mice. From the text:
0.9% is the minimum concentration that gives maximum effect (n=5).
(§1) It is also modestly present in the CM. Based upon these collective data, it appears that CACNA2D1 regulates IOP (FIG. 3). Pregabalin, or other gabapentinoid drugs, binds to the CACNA2D1 subunit of the calcium channel. The binding of the drug mitigates the flux of calcium through the α1 pore of the calcium channel, reducing the level of intracellular calcium. Since Cacna2d1 modulates IOP, pregabalin, a gabapentinoid drug with high specificity for CACNA2D1, was evaluated for its ability to affect IOP. […] The 1.2% pregabalin eye drops extended the duration of the IOP-lowering effect of pregabalin above that obtained with 0.6% pregabalin. Because there was no significant difference in the percent reduction of IOP between 0.9 and 1.2% pregabalin, we selected 0.9% as the minimal concentration required to produce the maximum reduction in IOP. Expanding this analysis to an additional species, we observed a similar IOP-lowering response (22.1±2.8%) in Dutch belted rabbits after instillation of 0.9% pregabalin eye drops (FIG. 5).

The subject of series [3] is IOP. Description: IOP lowering by pregabalin HPMC eye drops in rabbits. It counts as in vivo. Conditions: 0.9% pregabalin in HPMC eye drops, Dutch belted rabbits.
Description: FIG. 5: Pregabalin (0.9%) suspended in hydroxypropyl methylcellulose (HPMC) lowers IOP by 23% in Dutch belted rabbits (n=5).
as §1

The conditions of series [4]: cited from earlier work.

As for `NCC1(CC(=O)O)CCCCC1` [gabapentin], in series [1], the “area under the curve” value is reported as −14 % hr and the “maximum IOP reduction” value was −8%.
As for `CC(C)C[C@H](CN)CC(=O)O` [Pregabalin, pregabalin], the “IOP-lowering effect compared to control” value in series [2] (drops containing 0.3% pregabalin suspended in HPMC, topical, B6 mice) is “no IOP-lowering effect”. Further, the “IOP reduction, dose dependence” value in series [2] (pregabalin 0.3-1.2% suspended in HPMC, eye drops, mice) was “dose-dependent manner”. In addition, in series [2] (pregabalin in HPMC eye drops, B6 mice, plateau, no significant difference 0.9 vs 1.2%), the “minimal concentration required to produce the maximum reduction in IOP” value was 0.9%. For the same molecule, the “IOP-lowering response (IOP reduction)” value in series [3] is given as 23%. Besides, in series [3] (listed as pregabalin), the “IOP-lowering response (IOP reduction)” value is 22.1±2.8%. For the same molecule, in series [1], the “area under the curve” value was found to be 65 % hr, the “maximum IOP reduction” value turned out to be 17.3% and the “time at which IOP returned to baseline” value was not above 6 h.
Consider `NC(=O)c1ncn([C@@H]2O[C@H](CO)[C@@H](O)[C@H]2O)n1` [Ribavirin, 113-D-ribofuranosyl-1H-1,2,4-triazole-3-carboxamide], for which, in series [4], the solubility in water result is “freely soluble in water”.
Regarding `NC(C(=O)O)c1ccccc1` (stereo not shown) [2-phenylglycine], in series [1], the “area under the curve” value is reported as −14 % hr and the “maximum IOP reduction” value is recorded as −8%.
